The source made the active and inactive calls. No cut-off for these calls is given here.
Experiments:
[1] = Growth inhibition of human RPMI8226 cells at 10 uM after 48 hrs; type: functional; conditions: RPMI-8226, 48 h, read-out: GI
NCI-H226 = assay: Growth inhibition of human NCI-H226 cells at 10 uM after 48 hrs; type: functional; conditions: NCI-H226, 48 h, read-out: GI
CCRF-CEM = assay: Growth inhibition of human CCRF-CEM cells at 10 uM after 48 hrs; type: functional; conditions: read-out: GI
Escherichia coli = assay: Antimicrobial activity against Escherichia coli assessed as inhibition zone at 200 ug/disk after 24 hrs by disc-diffusion method; type: functional; conditions: read-out: IZ
Bacillus subtilis = assay: Antimicrobial activity against Bacillus subtilis assessed as inhibition zone at 200 ug/disk after 24 hrs by disc-diffusion method; type: functional; conditions: read-out: IZ
[2] = Growth inhibition of human MOLT4 cells at 10 uM after 48 hrs; type: functional; conditions: MOLT-4, 48 h, read-out: GI
NCI-H522 = assay: Growth inhibition of human NCI-H522 cells at 10 uM after 48 hrs; type: functional
[3] = Growth inhibition of human OVCAR4 cells at 10 uM after 48 hrs; type: functional; conditions: OVCAR-4, 48 h, read-out: GI
HT-29 = assay: Growth inhibition of human HT-29 cells at 10 uM after 48 hrs; type: functional; conditions: HT-29, 48 h, read-out: GI
UO-31 = assay: (§1) Growth inhibition of human UO31 cells at 10 uM after 48 hrs; type: functional
HL-60(TB) = assay: Growth inhibition of human HL-60(TB) cells at 10 uM after 48 hrs; type: functional; conditions: HL-60, 48 h, read-out: GI
SK-MEL-5 = assay: Growth inhibition of human SK-MEL-5 cells at 10 uM after 48 hrs; type: functional; conditions: SK-MEL-5, 48 h, read-out: GI
SR = assay: Growth inhibition of human SR cells at 10 uM after 48 hrs; type: functional; conditions: read-out: GI
[4] = Growth inhibition of human RXF393 cells at 10 uM after 48 hrs; type: functional; conditions: RXF 393, 48 h, read-out: GI
Dihydrofolate reductase = target: T1, Dihydrofolate reductase (Bos taurus, UniProt P00376); assay: Inhibition of bovine liver DHFR
T1 sequence (P00376 whole entry): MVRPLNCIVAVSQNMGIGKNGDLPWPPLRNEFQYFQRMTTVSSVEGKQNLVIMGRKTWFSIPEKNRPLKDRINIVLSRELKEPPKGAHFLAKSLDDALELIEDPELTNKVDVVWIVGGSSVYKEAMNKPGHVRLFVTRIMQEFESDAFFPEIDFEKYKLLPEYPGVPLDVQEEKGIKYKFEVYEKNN

[5] = Growth inhibition of human HCT15 cells at 10 uM after 48 hrs; type: functional; conditions: HCT-15, 48 h, read-out: GI
Pseudomonas aeruginosa = assay: Antimicrobial activity against Pseudomonas aeruginosa assessed as inhibition zone at 200 ug/disk after 24 hrs by disc-diffusion method; type: functional; conditions: read-out: IZ
[6] = Growth inhibition of human PC3 cells at 10 uM after 48 hrs; type: functional; conditions: PC-3, 48 h, read-out: GI
MCF7 = assay: Growth inhibition of human MCF7 cells at 10 uM after 48 hrs; type: functional; conditions: MCF7, 48 h, read-out: GI
Staphylococcus aureus = assay: Antimicrobial activity against Staphylococcus aureus assessed as inhibition zone at 200 ug/disk after 24 hrs by disc-diffusion method; type: functional; conditions: read-out: IZ
T47D = assay: Growth inhibition of human T47D cells at 10 uM after 48 hrs; type: functional; conditions: read-out: GI
K562 = assay: Growth inhibition of human K562 cells at 10 uM after 48 hrs; type: functional; conditions: K562, 48 h, read-out: GI
A549 = assay: Growth inhibition of human A549 cells at 10 uM after 48 hrs; type: functional; conditions: A549, 48 h, read-out: GI
MDA-MB-468 = assay: Growth inhibition of human MDA-MB-468 cells at 10 uM after 48 hrs; type: functional; conditions: MDA-MB-468, 48 h, read-out: GI
[7] = Growth inhibition of human UACC62 cells at 10 uM after 48 hrs; type: functional; conditions: UACC-62, 48 h, read-out: GI
[8] = Growth inhibition of human HCT116 cells at 10 uM after 48 hrs; type: functional; conditions: HCT-116, 48 h, read-out: GI
A498 = assay: Growth inhibition of human A498 cells at 10 uM after 48 hrs; type: functional; conditions: A498, 48 h, read-out: GI
KM12 = assay: Growth inhibition of human KM12 cells at 10 uM after 48 hrs; type: functional; conditions: KM12, 48 h, read-out: GI
Candida albicans = assay: Antimicrobial activity against Candida albicans assessed as inhibition zone at 200 ug/disk after 24 hrs by disc-diffusion method; type: functional; conditions: read-out: IZ
[9] = as §1; type: functional; conditions: UO-31, 48 h, read-out: GI
[10] = Growth inhibition of human HOP92 cells at 10 uM after 48 hrs; type: functional; conditions: HOP-92, 48 h, read-out: GI
CAKI-1 = assay: Growth inhibition of human CAKI-1 cells at 10 uM after 48 hrs; type: functional; conditions: CAKI-1, 48 h, read-out: GI
[11] = Growth inhibition of human SF295 cells at 10 uM after 48 hrs; type: functional; conditions: SF-295, 48 h, read-out: GI
Malme-3M = assay: Growth inhibition of human MALME-3M cells at 10 uM after 48 hrs; type: functional; conditions: read-out: GI
NCI-H23 = assay: Growth inhibition of human NCI-H23 cells at 10 uM after 48 hrs; type: functional; conditions: NCI-H23, 48 h, read-out: GI

SMILES | inhibition of growth at 10 µM [1] [%] | inhibition of growth at 10 µM (NCI-H226) [%] | zone of inhibition at 200 µg/disc (Escherichia coli) [mm] | zone of inhibition at 200 µg/disc (Bacillus subtilis) [mm] | inhibition of growth at 10 µM [2] [%] | inhibition of growth at 10 µM [3] [%] | inhibition of growth at 10 µM (HL-60(TB)) [%] | inhibition of growth at 10 µM (SR) [%] | inhibition of growth at 10 µM [4] [%] | IC50 (Dihydrofolate reductase) [µM] | zone of inhibition at 200 µg/disc (Pseudomonas aeruginosa) [mm] | inhibition of growth at 10 µM [6] [%] | inhibition of growth at 10 µM (MCF7) [%] | zone of inhibition at 200 µg/disc (Staphylococcus aureus) [mm] | inhibition of growth at 10 µM (K562) [%] | inhibition of growth at 10 µM [7] [%] | inhibition of growth at 10 µM (A498) [%] | zone of inhibition at 200 µg/disc (Candida albicans) [mm] | inhibition of growth at 10 µM [9] [%] | inhibition of growth at 10 µM [11] [%] | other results
COc1cc2nc(Sc3nnc(N)s3)n(-c3ccc(Oc4ccccc4)cc3)c(=O)c2cc1OC | 43.7 | 13.4 | 8 | 8 | 29.6 | 34.6 | 11.2 | 57.3 | 10.7 | 0.6 | 8 | 23.2 | 14.8 | 8 | 22.5 | 22.1 | 19.3 | 8 | – | – | inhibition of growth at 10 µM (CCRF-CEM): 11.2%; growth inhibition (GI) (NCI-H522): inactive; inhibition of growth at 10 µM (HT-29): 17.6%; growth inhibition (GI) (UO-31): inactive; inhibition of growth at 10 µM (SK-MEL-5): 28.2%; inhibition of growth at 10 µM [5]: 21.4%; inhibition of growth at 10 µM (T47D): 38.4%; inhibition of growth at 10 µM (A549): 15.2%; inhibition of growth at 10 µM (MDA-MB-468): 22.6%; inhibition of growth at 10 µM [8]: 11.5%; inhibition of growth at 10 µM (KM12): 20.7%
COc1ccc(-n2c(Sc3sc(N)nc3C)nc3ccc(Cl)cc3c2=O)cc1 | 14.6 | 11.8 | 8 | 8 | – | 13.8 | – | 13.5 | 13.4 | 8 | 8 | 14.7 | 11.5 | 8 | 14.3 | 12.6 | 24.3 | 8 | 35.5 | 27.6 | inhibition of growth at 10 µM (NCI-H522; NCI-H522, 48 h, read-out: GI): 10.5%; inhibition of growth at 10 µM [10]: 24.9%; inhibition of growth at 10 µM (CAKI-1): 13.1%
Nc1nnc(Sc2nc3ccc(Cl)cc3c(=O)n2Cc2ccccc2)s1 | 17.3 | – | 12 | 8 | 16.8 | – | 24.3 | – | – | 8 | 8 | 12.8 | – | 8 | 24.8 | 17.5 | 25.9 | 8 | 27.2 | 13.5 | inhibition of growth at 10 µM (Malme-3M): 19.2%; inhibition of growth at 10 µM (NCI-H23): 10.3%

Source: ChEMBL document CHEMBL3352542, “Synthesis, biological evaluation and molecular modeling study of 2-(1,3,4-thiadiazolyl-thio and 4-methyl-thiazolyl-thio)-quinazolin-4-ones as a new class of DHFR inhibitors” (Bioorg Med Chem Lett, 2014)
